{
  "source": "patent US11466006B2",
  "about": "“Dual selective PI3 delta and gamma kinase inhibitors” (Rhizen Pharmaceuticals SA, priority 2013, dated 2022)",
  "key": {"[1]": {"tested_on": "male Balb/c mice", "test": "Acute cigarette smoke induced cell infiltration in male Balb/c mice", "format": "in vivo, mouse", "details": "0.3, 1, or 3 mg/kg/BID, cigarette smoke exposed mice", "description": "Animals (male Balb/c mice) are to be acclimatized for seven days prior to the start of the experiment. Animals are then to be randomly distributed to various groups based on their body weights. On day 1, mice is to be administered test compound or vehicle by oral/intranasal route and after 1 hr test compound administration animals are to be placed in whole body exposure box. On day 1 and d2 mice are exposed to the mainstream smoke of 6 cigarettes and of 8 cigarettes on day 3, and of 10 cigarettes on day 4. […] The total number of white blood cells is to be determined in BAL fluid and blood using a blood cell counter and adjusted to 1×10^6 cell/ml. Differential cell count is calculated manually. […] The number of each cell type among 300 white blood cells in the cell smear are to be determined and expressed as a percentage, and the number of neutrophils and macrophages in each BAL fluid are to be calculated. • Results: As depicted in FIGS. 7A and 7B, Compound A1 reduced macrophages and neutrophil infiltration into BALF thereby indicating a therapeutic role in chronic obstructive pulmonary diseases Assay 16: Ovalbumin-Induced Nasal Eosinophil and Neutrophil Accumulation in Mice"}, "[2]": {"tested_on": "male guinea pigs", "test": "Ovalbumin induced pulmonary eosinophilia in male guinea pigs", "format": "in vivo, guinea pig", "details": "sensitized guinea pigs, 0.3, 1, 3 mg/kg oral", "method": "After the quarantine period, 0.3 mL of blood samples was collected from orbital vein by retro-orbital plexus method from each individual animal and analysed on a cell analyser (ADVIA 2120, Siemens). Based on their total cell count, guinea pigs were randomized and divided into various groups. Ear pinna was marked with an indelible marking pen for identification. On day 0, weights were recorded and animals were sensitized with 50 μg of Ovalbumin (OVA) and 10 mg of alum solution (1 mL) intraperitoneally. On day 7 and day 14, the above sensitization protocol was repeated. […] On day 19, 20, and 21, after the treatment with test compound by oral gavage, 30 mins later animals were exposed to 0.5% w/v, 0.5% and 1% Ovalbumin challenge respectively. Control & sham group animals were treated with 0.5% w/v methyl cellulose (vehicle). Sham control groups were sensitized with 10 mg of alum on day 0, 7 & 14 and exposed to saline solution (SAL) with the same nebulization rate on day 19. 20 and 21. Twenty hours after last OVA challenge, airway hyperresponsiveness was measured by whole body plethysmograph against cumulative doses of methacholine challenge (75, 100, 125 & 150 μg/ml), after measuring the airway response, blood samples and BAL fluid was collected. Samples were analysed for total cell count by using neubuear chamber under microscope and differential leukocyte count was done manually."}, "[3]": {"tested_on": "ovalbumin sensitized mice", "test": "Murine asthma model (ovalbumin sensitized mice)", "format": "in vivo, mouse", "details": "3 mg/kg oral", "description": "Airway inflammation and hyper-responsiveness (AHR) are hallmarks and distinguishing features of bronchial asthma. Provocation of pre-sensitized mice with the same allergen induces airway inflammation with preferential eosinophilic infiltration and, as a consequence, AHR. Pulmonary eosinophilia and airway remodelling in conjunction with altered neural control of airway tone and airway epithelial desquamation may contribute to AHR in asthma. After the quarantine period, based on their body weights, mice were randomized and divided into four groups (n=7). Tails were marked with an indelible marking pen for identification. On day 0, weights were recorded and animals were sensitized with 100 μg of Ovalbumin and 10 mg of alum solution (0.2 mL) intraperitoneally. On day 7 and day 14, the above sensitization protocol was repeated. […] On day 24, 25, and 26, after the treatment with test compound by oral gavage, 30 mins later animals were exposed to 10% w/v Ovalbumin challenge. […] Forty eight hours after last OVA challenge, airway hyperresponsiveness was measured by whole body plethysmograph against cumulative doses of methacholine challenge (2.5, 10, 50 and 100 mg/ml), after measuring the airway response, blood samples and BAL fluid was collected. Samples were analysed for total cell count by using neubuear chamber under microscope and differential leukocyte count was done manually."}, "[4]": {"molecular_target": "T1, PI3K alpha (Mus musculus, UniProt P42337)", "T1 construct": "endogenous in cells; host or cells: 3T3 fibroblasts", "T1 sequence (P42337 whole entry)": "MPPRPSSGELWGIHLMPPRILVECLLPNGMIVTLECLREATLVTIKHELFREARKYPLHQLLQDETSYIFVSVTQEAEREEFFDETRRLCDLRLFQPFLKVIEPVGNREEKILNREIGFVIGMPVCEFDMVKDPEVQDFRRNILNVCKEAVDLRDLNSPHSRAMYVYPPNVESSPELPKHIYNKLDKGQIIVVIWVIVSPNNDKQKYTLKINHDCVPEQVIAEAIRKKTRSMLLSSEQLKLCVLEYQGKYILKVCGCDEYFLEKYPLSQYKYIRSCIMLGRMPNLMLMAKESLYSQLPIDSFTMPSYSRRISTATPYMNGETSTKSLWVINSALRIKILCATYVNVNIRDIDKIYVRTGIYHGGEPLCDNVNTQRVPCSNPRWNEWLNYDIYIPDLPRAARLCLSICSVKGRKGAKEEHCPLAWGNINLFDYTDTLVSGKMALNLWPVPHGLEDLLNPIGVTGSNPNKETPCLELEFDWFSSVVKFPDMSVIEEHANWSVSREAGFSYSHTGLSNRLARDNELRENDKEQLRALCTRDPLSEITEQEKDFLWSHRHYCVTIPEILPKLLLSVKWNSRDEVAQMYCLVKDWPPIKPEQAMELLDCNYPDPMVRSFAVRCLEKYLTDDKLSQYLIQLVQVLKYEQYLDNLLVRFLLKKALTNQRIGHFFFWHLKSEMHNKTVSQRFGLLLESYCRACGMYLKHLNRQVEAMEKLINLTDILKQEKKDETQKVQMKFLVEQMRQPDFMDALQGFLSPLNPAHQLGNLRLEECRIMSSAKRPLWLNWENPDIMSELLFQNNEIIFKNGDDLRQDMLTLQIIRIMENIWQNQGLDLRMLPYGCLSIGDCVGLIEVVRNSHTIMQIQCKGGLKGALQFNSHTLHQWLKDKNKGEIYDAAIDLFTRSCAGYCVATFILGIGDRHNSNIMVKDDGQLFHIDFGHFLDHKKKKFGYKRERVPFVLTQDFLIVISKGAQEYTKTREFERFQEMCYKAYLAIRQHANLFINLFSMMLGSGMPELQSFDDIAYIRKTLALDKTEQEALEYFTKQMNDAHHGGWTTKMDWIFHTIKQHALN", "T1 sequence (P26450 whole entry partner)": "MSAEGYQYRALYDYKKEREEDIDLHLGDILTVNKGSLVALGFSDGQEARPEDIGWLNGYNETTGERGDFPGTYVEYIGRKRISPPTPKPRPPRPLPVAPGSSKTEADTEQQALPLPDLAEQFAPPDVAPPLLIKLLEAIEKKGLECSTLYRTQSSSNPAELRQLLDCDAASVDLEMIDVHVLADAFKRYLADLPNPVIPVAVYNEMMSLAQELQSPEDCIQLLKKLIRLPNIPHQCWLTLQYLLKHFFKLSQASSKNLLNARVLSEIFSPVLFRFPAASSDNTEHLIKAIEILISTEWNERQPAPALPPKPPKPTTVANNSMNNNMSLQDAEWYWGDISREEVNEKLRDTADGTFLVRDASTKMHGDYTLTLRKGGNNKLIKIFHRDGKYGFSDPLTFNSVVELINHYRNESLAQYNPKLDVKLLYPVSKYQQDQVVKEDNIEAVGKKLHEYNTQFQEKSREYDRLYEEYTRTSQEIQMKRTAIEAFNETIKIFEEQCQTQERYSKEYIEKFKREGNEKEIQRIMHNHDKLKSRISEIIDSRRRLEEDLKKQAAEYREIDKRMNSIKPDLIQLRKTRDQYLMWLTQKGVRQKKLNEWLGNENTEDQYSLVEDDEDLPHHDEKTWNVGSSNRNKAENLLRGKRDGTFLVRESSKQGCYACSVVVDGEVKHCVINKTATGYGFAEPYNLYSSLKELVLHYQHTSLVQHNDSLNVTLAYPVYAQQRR", "test": "PDGF induced Akt phosphorylation in 3T3 cells (PI3Kα selectivity)", "format": "cell-based", "method": "The objective of this study was to determine the effect of Compound A1 on PI3Kα kinase mediated AktS473 phosphorylation in PDGF induced 3T3 fibroblasts. • 3T3 cells were treated with desired concentrations of the test compound for 15 min. 1 ml of 2× PDGF was added such that the final concentration was 20 ng/ml and incubated for 10 min. • Media was discarded and washed with 1 ml of ice-cold 1× PBS. • 250 μl of cell lysis buffer was added and incubated on ice for 30 min. • Samples were centrifuged and supernatant was collected and stored at −80° C. until analysis. • Samples were analyzed by Western Blotting using pAKT (S473) as the primary and anti-rabbit IgG-HRP as a secondary antibody. • Intensity of the bands was determined using ImageJ 1.42q (NIH, USA) and normalized to Actin (loading control). Data was plotted using GraphPad Prism (Version 5.02)."}, "[5]": {"tested_on": "pAKT", "test": "Inhibition of AKT phosphorylation in leukemic cell lines (Western blot)", "format": "cell-based", "details": "MOLT-4, Jurkat, CCRF-CEM, Hut-78 & HuT-102; 48 h; read-out: EC50, reduction in pAKT expression", "method": "MOLT-4, Jurkat, CCRF-CEM, Hut-78, HuT-102, Sez4 and HH cells were incubated with desired concentrations of compound for 48 h. Cells were lysed and pAKT determined by Western Blotting. Bands were quantified using ImageJ and normalized to actin."}},
  "data": [
    {"smiles": "CC[C@H](Nc1ncnc2[nH]cnc12)c1oc2ccccc2c(=O)c1-c1cccc(F)c1", "note": "[Compound A1, (S)-2-(1-(9H-purin-6-ylamino)propyl)-3-(3-fluorophenyl)-4H-chromen-4-one]", "values": [
      {"measurement": "macrophages and neutrophil infiltration into BALF", "setting": "[1]", "value": "reduced"},
      {"measurement": "airway hyperresponsiveness against methacholine challenge", "setting": "[2]", "value": "significant dose dependent reduction"},
      {"measurement": "eosinophil infiltration into the bronchoalveolar lavage fluid", "setting": "[2]", "value": "significant dose dependent reduction"},
      {"measurement": "airway hyperresponsiveness against methacholine challenge", "setting": "[3]", "value": "significant reduction"},
      {"measurement": "eosinophil infiltration into the bronchoalveolar lavage fluid", "setting": "[3]", "value": "significant inhibition"},
      {"measurement": "inhibition of PDGF induced AktS473 phosphorylation", "setting": "[4]; at 10 μM, 3T3 fibroblasts", "value": "No inhibition"},
      {"measurement": "IC50", "setting": "[4]; read-out: Cellular IC50 PI3K alpha (PDGF induced pAKT in 3T3 fibroblasts)", "value": "> 10000", "unit": "nM"},
      {"measurement": "EC50", "setting": "[5]", "value": "500 to 2000", "unit": "nM"}
    ]}
  ]
}
